In US20240199651A1, “ANTIBACTERIAL COMPOUNDS” (JANSSEN SCIENCES IRELAND UNLIMITED COMPANY, priority 2021, published 2024):
Read-outs that look alike come from different tables or passages of the source.

What was measured:
[1] = Chemical stability testing (LCMS); format: physicochemical; conditions: for chemical stability, purity by LCMS: 0.065 mg/mL
Procedure: • Add 3 μl of a 10 mM DMSO stock solution to 1 ml of the following solvents in a 1.5 ml HPLC vial. • DMSO (reference solution) • H2O/Acetonitril 1/1 (assay solution) • 0.1N HCl/Acetonitril 1/1 (assay solution) • Mix well, […] LCMS • Compare the chromatograms of the two assay solutions with the reference solution and report the additional peaks as degradation peaks

[2] = LM CLint (microsomal stability), dog; format: in vitro ADME; conditions: for microsomal CLint at 1 µM: microsomes
From the text: (§1) The compounds of the invention/examples may have advantages associated with in vitro potency, kill kinetics (i.e. bactericidal effect) in vitro, PK properties, food effect, safety/toxicity (including liver toxicity, coagulation, 5-LO oxygenase), metabolic stability, Ames II negativity, MNT negativity, aqueous based solubility (and ability to formulate) and/or cardiovascular effect e.g. on animals (e.g. anesthetized guinea pig). Data that is generated/calculated may be obtained using standard methods/assays, for instance that are available in the literature or which may be performed by a supplier (e.g. Microsomal Stability Assay—Cyprotex, Mitochondrial toxicity (Glu/Gal) assay—Cyprotex, as well as literature CYP cocktail inhibition assays). GSH can be measured (reactive metabolites, glucuronidation) to observe if a dihydrodiol is observed by LCMS (fragmentation ions), which would correspond to a dihydroxylation on the core heterocycle.
(§2) CLint Microsomes (μL/Min/Mg) in Dog (d), Human (h), Mouse (m) and Rat (r) (all at 1 μm)

[3] = LM CLint (microsomal stability), rat; format: in vitro ADME; conditions: for microsomal CLint at 1 µM: microsomes
From the text: as §1, §2

AMES II = format: cell-based; conditions: score
From the text: as §1

MDCK = MDCK permeability (AB+inh, BA/AB); conditions: with inhibitor
[4] = LM CLint (microsomal stability), mouse; format: in vitro ADME; conditions: for microsomal CLint at 1 µM: microsomes
From the text: as §1, §2

[5] = Mitochondrial toxicity (Glu/Gal) assay; format: cell-based; design: Glu/Gal: Glu / Glu/Gal: Gal: unit not given here; conditions: for Glu/Gal: Glu: first value (Glu); for Glu/Gal: Gal: second value (Gal); for Score: mitotoxicity score, Glu/Gal assay; for Δ IC50, glu/IC50, gal: ratio IC50 glu / IC50 gal
[6] = LM CLint (microsomal stability), human; format: in vitro ADME; conditions: for microsomal CLint at 1 µM: liver microsomes, read-out: CLint Microsomes, Human (h); for CLint Microsomes, Human (h): 1 μm
From the text: as §1, §2

in vitro = in vitro ADME; conditions: human, plasma
From the text: PPB % Free (Human at 1 μm)

[7] = test system: Mycobacterium tuberculosis strain EH4.0 expressing green-fluorescent protein (GFP); assay: microbe, parasite or virus in culture; format: cell-based
[8] = 1 μm, read-out: CLint Microsomes, Mouse (m)
[9] = Mycobacterium tuberculosis, Test 1 (and/or Test 2), M. tuberculosis
[10] = galactose medium (Glu/Gal mitotoxicity assay), read-out: IC50, gal
[11] = glucose medium (Glu/Gal mitotoxicity assay), read-out: IC50, glu

Structure (SMILES)	IC50 ([5]; read-out: IC50, gal)	IC50 ([5]; read-out: IC50, glu)	microsomal CLint at 1 µM [4, 8]	microsomal CLint at 1 µM [6]	chemical stability, % by LCMS ([1]; 48 h, 30 µM)	chemical stability, % by LCMS ([1]; 48 h, 30 µM, pH 1.6)	AC50 [7, 9]	also measured
CCc1nc2ncc(Cl)cn2c1C(=O)NCc1ccc(-c2nc3n(n2)CCN(S(=O)(=O)C(F)(F)F)C3)cc1 [Compound 2]	> 100 µM	> 100 µM	–	–	–	–	–	chemical stability, purity by LCMS ([1]; 0 h): 99.56%; chemical stability, purity by LCMS ([1]; 0.25 h): 99.38%; chemical stability, purity by LCMS ([1]; 0.5 h): 99.21%; chemical stability, purity by LCMS ([1]; 1 h): 98.89%; chemical stability, purity by LCMS ([1]; 2 h): 98.28%; chemical stability, purity by LCMS ([1]; 4 h): 97.1%; chemical stability, % by LCMS ([1]; 72 h, 30 µM): 100%; chemical stability, % by LCMS ([1]; 72 h, 30 µM, pH 1.6): 90.52%; CLint Microsomes, Dog (d) ([2]; 1 μm): < 7.7 μL/Min/Mg; microsomal CLint at 1 µM [2]: < 7.7 µL/min/mg; CLint Microsomes, Rat (r) ([3]; 1 μm): < 7.7 μL/Min/Mg; microsomal CLint at 1 µM [3]: < 7.7 µL/min/mg; AMES II (AMES II): 1; MDCK AB+inh (MDCK): 32.5; microsomal CLint at 1 µM [4]: < 7.7 µL/min/mg; Glu/Gal: Glu [5]: > 100; Glu/Gal: Gal [5]: > 100
CCc1nc2ncc(C)cn2c1C(=O)NCc1ccc(-c2nc3n(n2)CCN(S(=O)(=O)C(F)(F)F)C3)c(F)c1 [Compound 7]	> 200 µM	> 200 µM	–	–	–	–	–	chemical stability, % by LCMS ([1]; 72 h, 30 µM): 100%; chemical stability, % by LCMS ([1]; 72 h, 30 µM, pH 1.6): 100%; MDCK AB+inh (MDCK): 21.4; microsomal CLint at 1 µM [4]: < 7.7 µL/min/mg; Glu/Gal: Glu [5]: > 200; Glu/Gal: Gal [5]: > 200
CCc1nc2ccc(Cl)cn2c1C(=O)NCc1cnc(-c2nc3n(n2)CCN(S(=O)(=O)C(F)(F)F)C3)c(F)c1 [Compound 15]	> 200 µM	> 200 µM	50.6 µL/min/mg	16.2 µL/min/mg	–	–	–	chemical stability, % by LCMS ([1]; 72 h, 30 µM): 97.03%; chemical stability, % by LCMS ([1]; 72 h, 30 µM, pH 1.6): 97.49%
CCc1nc2nc3c(cn2c1C(=O)NCc1ccc(-c2nc4n(n2)CCN(S(=O)(=O)C(F)(F)F)C4)c(F)c1)CCOC3 [Compound 18]	184 µM	> 200 µM	36.9 µL/min/mg	20.1 µL/min/mg	–	–	–	Score [5]: [x]1; Δ IC50, glu/IC50, gal [5]: >1.09
CCc1nc2ccc(C)cn2c1C(=O)NCc1ccc(-c2nc3n(n2)CCN(S(=O)(=O)C(F)(F)F)C3)cc1 [Compound 24]	> 200 µM	> 200 µM	76.3 µL/min/mg	169 µL/min/mg	100%	100%	–	chemical stability, % by LCMS ([1]; 0 h, 30 µM): 100%; chemical stability, % by LCMS ([1]; 0 h, 30 µM, pH 1.6): 100%; chemical stability, % by LCMS ([1]; 0 h, 30 µM, pH 9): 89.46%; chemical stability, % by LCMS ([1]; 48 h, 30 µM, pH 9): 43.8%
Cc1cnc2nc(C3CC3)c(C(=O)NCc3ccc(-c4nc5n(n4)CCN(S(=O)(=O)C(F)(F)F)C5)cc3)n2c1 [Compound 42]	> 25 µM	> 25 µM	20.4 µL/min/mg	47.1 µL/min/mg	100%	100%	–	fraction unbound at 1 µM (in vitro): 0.029
CCc1nc2ncc(C)cn2c1C(=O)NCc1ccc(-c2cc3n(n2)CCN(S(=O)(=O)C(F)(F)F)C3)cc1 [Compound 44]	> 200 µM	> 200 µM	20 µL/min/mg	176 µL/min/mg	100%	100%	–	–
CCc1nc2ncc(C)cn2c1C(=O)NCc1ccc(-c2nc3n(n2)CCN(S(=O)(=O)N2CCCC2)C3)cc1 [Compound 47]	> 200 µM	> 200 µM	13.9 µL/min/mg	58.5 µL/min/mg	99%	100%	–	–
CCc1nc2ncc(C)cn2c1C(=O)NCCc1ccc(-c2nc3n(n2)CCN(S(=O)(=O)C(F)(F)F)C3)cc1 [Compound 66]	> 200 µM	> 200 µM	92.3 µL/min/mg	39.6 µL/min/mg	98%	98%	–	chemical stability, % by LCMS ([1]; 0 h, 30 µM): 91%; IC50 [7, 9]: 0.269 µM
CCc1nc2ncc(C)cn2c1C(=O)NCc1ccc(-c2cn3c(n2)CN(S(=O)(=O)C(F)(F)F)CC3)c(F)c1 [Compound 80]	–	–	–	–	–	–	–	chemical stability, % by LCMS ([1]; ACN/0.1N HCl (pH 1.6; 0 hr, rt)): 100%; chemical stability, % by LCMS ([1]; ACN/0.1N HCl (pH 1.6; 48 hr, rt)): 100%; chemical stability, % by LCMS ([1]; ACN/0.1N NaOH (pH 9-10; 0 hr, rt)): 76.8%; chemical stability, % by LCMS ([1]; ACN/0.1N NaOH (pH 9-10; 48 hr, rt)): 16.8%; chemical stability, % by LCMS ([1]; DMSO (0 hr, rt)): 100%; chemical stability, % by LCMS ([1]; DMSO (48 hr, rt)): 100%; pIC50 [7]: 8.06; CLint Microsomes, Mouse (m) ([4]; 1 μm): 13.2 μL/Min/Mg; CLint Microsomes, Human (h) [6]: 39.8 μL/Min/Mg; IC50 [5, 10]: > 200 µM; IC50 [5, 11]: > 200 µM
CCc1nc2ccc(C)cn2c1C(=O)NCc1ccc(-c2cc3n(n2)CCN(S(=O)(=O)C(F)(F)F)C3)cc1 [Compound 81]	> 200 µM	> 200 µM	74.8 µL/min/mg	> 347 µL/min/mg	100%	100%	–	chemical stability, % by LCMS ([1]; 0 h, 30 µM): 95%; microsomal CLint at 1 µM ([2]; 1 μm, read-out: CLint Microsomes, Dog (d)): 189 µL/min/mg; microsomal CLint at 1 µM ([3]; 1 μm, read-out: CLint Microsomes, Rat (r)): 80.7 µL/min/mg
CCc1nc2ncc(C)cn2c1C(=O)NCc1ccc(-c2cc3n(n2)CCN(S(=O)(=O)C(F)(F)F)C3)c(F)c1 [Compound 82]	> 25 µM	> 25 µM	–	–	100%	100%	–	AMES II (AMES II): 1; MDCK AB+inh (MDCK): 16.2; Glu/Gal: Glu [5]: > 25; Glu/Gal: Gal [5]: > 25
CCc1nc2ncc(C)cn2c1C(=O)NCc1ccc(-c2cc3n(n2)CCN(S(=O)(=O)C(F)(F)F)C3)c(C)c1 [Compound 84]	–	–	–	–	–	–	–	AC50 [7]: 0.0076 µM; CLint Microsomes, Mouse (m) ([4]; 1 μm): 21.2 μL/Min/Mg; CLint Microsomes, Human (h) [6]: 205 μL/Min/Mg; IC50 [5, 10]: 62.5 µM; IC50 [5, 11]: > 200 µM; Δ IC50, glu/IC50, gal [5]: >3.2
Cc1cnc2nc(C3CC3)c(C(=O)NCc3ccc(-c4cn5c(n4)CN(S(=O)(=O)C(F)(F)F)CC5)cc3)n2c1 [Compound 94]	> 200 µM	> 200 µM	18.1 µL/min/mg	98.1 µL/min/mg	–	–	0.063 µM	–
Cc1cnc2nc(C3CC3)c(C(=O)NCc3ccc(-c4nc5n(n4)CCN(S(=O)(=O)C(F)(F)F)C5)c(C)c3)n2c1 [Compound 98]	97.8 µM	177 µM	26.9 µL/min/mg	51.8 µL/min/mg	–	–	0.017 µM	Score [5]: [x]1; Δ IC50, glu/IC50, gal [5]: 1.81
Cc1cnc2nc(C3CC3)c(C(=O)NCc3ccc(-c4cc5n(n4)CCN(S(=O)(=O)C(C)C)C5)cc3)n2c1 [Compound 106]	> 100 µM	> 100 µM	83.4 µL/min/mg	111 µL/min/mg	–	–	–	–
Cc1cnc2nc(C3CC3)c(C(=O)NCc3ccc(-c4cn5c(n4)CN(S(=O)(=O)C(F)(F)F)CC5)c(F)c3)n2c1 [Compound 112]	–	–	–	–	–	–	0.0095 µM	IC50 [5, 10]: > 100 µM; IC50 [5, 11]: > 100 µM
Cc1cnc2nc(C(F)(F)F)c(C(=O)NCc3ccc(-c4nc5n(n4)CCN(S(=O)(=O)C(F)(F)F)C5)cc3)n2c1 [Compound 113]	–	–	–	–	–	–	0.032 µM	IC50 [5, 10]: > 100 µM; IC50 [5, 11]: > 100 µM
Cc1cnc2nc(C(F)(F)F)c(C(=O)NCc3ccc(-c4cc5n(n4)CCN(S(=O)(=O)C(F)(F)F)C5)cc3)n2c1 [Compound 114]	–	–	–	–	–	–	0.0098 µM	IC50 [5, 10]: > 12.5 µM; IC50 [5, 11]: > 12.5 µM
O=C(NCc1ccc(-c2nc3n(n2)CCN(S(=O)(=O)C(F)(F)F)C3)c(F)c1)c1c(C2CC2)nc2ccccn12 [Compound 123]	–	–	–	–	–	–	0.018 µM	IC50 [5, 10]: > 100 µM; IC50 [5, 11]: > 100 µM
CCc1nc2ncc(C)cn2c1C(=O)NCc1ccc(-c2cc3n(n2)CCN(S(=O)(=O)C(F)(F)F)C3)nc1 [Compound 127]	> 200 µM	> 200 µM	9.29 µL/min/mg	31.5 µL/min/mg	–	–	0.049 µM	–
CCc1nc2ncc(C)cn2c1C(=O)NCc1cnc(-c2cc3n(n2)CCN(S(=O)(=O)C(F)(F)F)C3)c(C)c1 [Compound 129]	> 200 µM	> 200 µM	29.4 µL/min/mg	50.4 µL/min/mg	–	–	–	–
